In patent publication EP4700027A1, “CRYSTALLINE FORM OF NITROGEN-CONTAINING TETRACYCLIC COMPOUND AND PREPARATION METHOD THEREFOR” (Jiangsu Hengrui Pharmaceuticals Co., Ltd., priority 2023, dated 2024):
Each block holds one molecule with its values, some of them ahead of it.

Columns and labels:
[1] = tested on: MIA PaCa-2 cells; test: MIA PaCa-2 cell proliferation assay (CellTiter-Glo); format: cell-based; details: Homo sapiens; inhibitory activity against MIA PaCa-2 cell proliferation, 72 h incubation
Experimental: The inhibitory activity of the compound of the present disclosure against MIA PaCa-2 cell proliferation was measured. Below is a brief description of the experimental method: MIA PaCa-2 cells (ATCC, CRL-1420) were cultured in DMEM/HIGH GLUCOSE medium (GE, SH30243.01) containing 10% fetal bovine serum (Corning, 35-076-CV) and 2.5% horse serum (Beyotime Biological Tech., C0262) (i.e., complete medium). On the first day of the experiment, MIA PaCa-2 cells were seeded into a 96-well plate at a density of 500 cells/well using complete medium, with 90 µL of cell suspension per well, and the plate was incubated overnight in a 5% CO2 cell incubator at 37 °C. On the second day, the test compound, prepared in complete medium and serially diluted, was added at 10 µL/well. The final concentrations of the compound were 9 concentration points obtained by a 5-fold serial dilution from 10 µM. A blank control containing 0.5% DMSO was set up. The plate was incubated for 72 h in a 5% CO2 cell incubator at 37 °C. […] After the plate was left to stand at room temperature for 10 min, the luminescence signal values were measured using a multifunctional microplate reader (PerkinElmer, EnVision2015). The IC50 value for the inhibitory activity of the compound was calculated using Graphpad Prism software. […]

[2] = tested on: H358 cells; test: H358 cell proliferation assay (CellTiter-Glo); format: cell-based; details: Homo sapiens, NCI-H358; inhibitory activity against H358 cell proliferation, 120 h incubation
Experimental: The inhibitory activity of the compound of the present disclosure against H358 cell proliferation was measured. Below is a brief description of the experimental method: H358 cells (ATCC, CRL-5807) were cultured in RPMI1640 medium (Hyclone, SH30809.01) containing 10% fetal bovine serum (Corning, 35-076-CV) (i.e., complete medium). On the first day of the experiment, H358 cells were seeded into a 96-well plate at a density of 1200 cells/well using complete medium, with 100 µL of cell suspension per well, and the plate was incubated overnight in a 5% CO2 cell incubator at 37 °C. On the second day, the test compound, prepared in complete medium and serially diluted, was added at 10 µL/well. The final concentrations of the compound were 9 concentration points obtained by a 5-fold serial dilution from 10 µM. A blank control containing 0.5% DMSO was set up. The plate was incubated for 120 h in a 5% CO2 cell incubator at 37 °C. On the seventh day, the 96-well cell plate was removed from the incubator, and Cell Titer-Glo® Luminescent Cell Viability Assay (Promega, G7573) was added at 50 µL/well. After the plate was left to stand at room temperature for 10 min, the luminescence signal values were measured using a multifunctional microplate reader (PerkinElmer, EnVision® 2105), and the IC50 value for the inhibitory activity of the compound was calculated using Graphpad Prism software. Table 1. […]

[3] = Influencing factor stability study on crystal forms (light, high temperature, high humidity, 30 days); format: physicochemical
[4] = Dynamic vapor sorption (DVS) hygroscopicity testing; format: physicochemical; details: for desorption process of the sample versus its adsorption process: humidity changing from 0% to 95% RH
From the text: According to the description of hygroscopicity characteristics and the definitions of hygroscopic weight gains in "General Rule 9103, Guidelines for Hygroscopicity Trials for Pharmaceuticals" in the Chinese Pharmacopoeia, Volume IV, 2015 Edition, • deliquescent: sufficient water is absorbed to form a liquid; • extremely hygroscopic: the hygroscopic weight gain is not less than 15%; • hygroscopic: the hygroscopic weight gain is less than 15% but not less than 2%; • slightly hygroscopic: the hygroscopic weight gain is less than 2% but not less than 0.2%; nonhygroscopic or practically nonhygroscopic: the hygroscopic weight gain is less than 0.2%.
DVS refers to dynamic vapor sorption: The analysis was performed using SMS DVS Advantage; at 25 °C, the humidity was changed as follows: 50%-95%-0%-95%-50%, in steps of 10% (5% for the last step) (specific humidity ranges are shown in corresponding patterns, and those listed here were used in most cases); the criterion was dm/dt being not greater than 0.002%.

[5] = Light exposure (4500 Lux), 7 days
[6] = Light exposure (4500 Lux), 14 days
[7] = Light exposure (4500 Lux), 30 days
[8] = accelerated experimental conditions (70% RH)
[9] = normal storage conditions (25 °C and 60% RH)

IC50 [1]: 0.28 nM | IC50 [2]: 0.74 nM
SMILES: C=CC(=O)N1CCN2C(=O)c3cc(F)c(-c4ccc(F)c5sc(N)c(C#N)c45)c4c(Cl)nn(c34)CC[C@H]2C1 (atropisomer, axis not shown) [Compound 1, (S)-4-((S)-10-acryloyl-4-chloro-2-fluoro-14-oxo-8,8a,9,10,11,12-hexahydro-7H,14H-pyrazino[1',2':5,6][1,5]diazocino[3,2,1-hi]indazol-3-yl)-2-amino-7-fluorobenzo[b]thiophene-3-carbonitrile]

Color and state ([3]; 40 °C, 7 days): Off-white solid | Crystal form ([3]; 40 °C, 7 days): Did not change | Purity (%) ([3]; 40 °C, 7 days): 98.2% | Color and state ([3]; 40 °C, 14 days): Off-white solid | Crystal form ([3]; 40 °C, 14 days): Did not change | Purity (%) ([3]; 40 °C, 14 days): 97.8% | Color and state ([3]; 40 °C, 30 days): Off-white solid | Crystal form ([3]; 40 °C, 30 days): Did not change | Purity (%) ([3]; 40 °C, 30 days): 97.7% | Color and state ([3]; 60 °C, 7 days): Off-white solid | Crystal form ([3]; 60 °C, 7 days): Did not change | Purity (%) ([3]; 60 °C, 7 days): 98.3% | Color and state ([3]; 60 °C, 14 days): Off-white solid | Crystal form ([3]; 60 °C, 14 days): Did not change | Purity (%) ([3]; 60 °C, 14 days): 98.1% | Color and state ([3]; 60 °C, 30 days): Off-white solid | Crystal form ([3]; 60 °C, 30 days): Did not change | Purity (%) ([3]; 60 °C, 30 days): 98.1% | Color and state ([3]; 75% RH, 7 days): Off-white solid | Crystal form ([3]; 75% RH, 7 days): Did not change | Purity (%) ([3]; 75% RH, 7 days): 98.5% | Color and state ([3]; 75% RH, 14 days): Off-white solid | Crystal form ([3]; 75% RH, 14 days): Did not change | Purity (%) ([3]; 75% RH, 14 days): 98.5% | Color and state ([3]; 75% RH, 30 days): Off-white solid | Crystal form ([3]; 75% RH, 30 days): Did not change | Purity (%) ([3]; 75% RH, 30 days): 98.5% | Color and state ([3]; 92.5% RH, 7 days): Off-white solid | Crystal form ([3]; 92.5% RH, 7 days): Did not change | Purity (%) ([3]; 92.5% RH, 7 days): 98.5% | Color and state ([3]; 92.5% RH, 14 days): Off-white solid | Crystal form ([3]; 92.5% RH, 14 days): Did not change | Purity (%) ([3]; 92.5% RH, 14 days): 98.5% | Color and state ([3]; 92.5% RH, 30 days): Off-white solid | Crystal form ([3]; 92.5% RH, 30 days): Did not change | Purity (%) ([3]; 92.5% RH, 30 days): 98.5% | Color and state ([3]; Initial, 0 days): Off-white solid | Crystal form ([3]; Initial, 0 days): Crystal form G | Purity (%) ([3]; Initial, 0 days): 98.5% | Color and state [3, 5]: Off-white solid | Crystal form [3, 5]: Did not change | Purity (%) [3, 5]: 98.5% | Color and state [3, 6]: Off-white solid | Crystal form [3, 6]: Did not change | Purity (%) [3, 6]: 98.4% | Color and state [3, 7]: Off-white solid | Crystal form [3, 7]: Did not change | Purity (%) [3, 7]: 98.3% | hygroscopic weight gain [4, 8]: about 1.21% | crystal form re-identified after DVS testing [4]: did not change | hygroscopic weight gain ([4]; extreme conditions (90% RH)): about 1.60% | desorption process of the sample versus its adsorption process [4]: substantially overlapped | hygroscopic weight gain [4, 9]: about 1.04%
SMILES: C=CC(=O)N1CCN2C(=O)c3cc(F)c(-c4ccc(F)c5sc(N)c(C#N)c45)c4c(Cl)nn(c34)CC[C@H]2C1 [crystal form G]

Color and state ([3]; 40 °C, 7 days): Off-white solid | Crystal form ([3]; 40 °C, 7 days): Did not change | Purity (%) ([3]; 40 °C, 7 days): 99.1% | Color and state ([3]; 40 °C, 14 days): Off-white solid | Crystal form ([3]; 40 °C, 14 days): Did not change | Purity (%) ([3]; 40 °C, 14 days): 99.1% | Color and state ([3]; 40 °C, 30 days): Off-white solid | Crystal form ([3]; 40 °C, 30 days): Did not change | Purity (%) ([3]; 40 °C, 30 days): 98.9% | Color and state ([3]; 60 °C, 7 days): Off-white solid | Crystal form ([3]; 60 °C, 7 days): Did not change | Purity (%) ([3]; 60 °C, 7 days): 99.1% | Color and state ([3]; 60 °C, 14 days): Off-white solid | Crystal form ([3]; 60 °C, 14 days): Did not change | Purity (%) ([3]; 60 °C, 14 days): 99.1% | Color and state ([3]; 60 °C, 30 days): Off-white solid | Crystal form ([3]; 60 °C, 30 days): Did not change | Purity (%) ([3]; 60 °C, 30 days): 99.0% | Color and state ([3]; 75% RH, 7 days): Off-white solid | Crystal form ([3]; 75% RH, 7 days): Did not change | Purity (%) ([3]; 75% RH, 7 days): 99.2% | Color and state ([3]; 75% RH, 14 days): Off-white solid | Crystal form ([3]; 75% RH, 14 days): Did not change | Purity (%) ([3]; 75% RH, 14 days): 99.2% | Color and state ([3]; 75% RH, 30 days): Off-white solid | Crystal form ([3]; 75% RH, 30 days): Did not change | Purity (%) ([3]; 75% RH, 30 days): 99.2% | Color and state ([3]; 92.5% RH, 7 days): Off-white solid | Crystal form ([3]; 92.5% RH, 7 days): Did not change | Purity (%) ([3]; 92.5% RH, 7 days): 99.2% | Color and state ([3]; 92.5% RH, 14 days): Off-white solid | Crystal form ([3]; 92.5% RH, 14 days): Did not change | Purity (%) ([3]; 92.5% RH, 14 days): 99.2% | Color and state ([3]; 92.5% RH, 30 days): Off-white solid | Crystal form ([3]; 92.5% RH, 30 days): Did not change | Purity (%) ([3]; 92.5% RH, 30 days): 99.2% | Color and state ([3]; Initial, 0 days): Off-white solid | Crystal form ([3]; Initial, 0 days): Crystal form M | Purity (%) ([3]; Initial, 0 days): 99.2% | Color and state [3, 5]: Off-white solid | Crystal form [3, 5]: Did not change | Purity (%) [3, 5]: 99.2% | Color and state [3, 6]: Off-white solid | Crystal form [3, 6]: Did not change | Purity (%) [3, 6]: 99.2% | Color and state [3, 7]: Off-white solid | Crystal form [3, 7]: Did not change | Purity (%) [3, 7]: 99.0% | hygroscopic weight gain [4, 8]: about 0.55% | crystal form re-identified after DVS testing [4]: did not change | hygroscopic weight gain ([4]; extreme conditions (90% RH)): about 0.73% | desorption process of the sample versus its adsorption process [4]: substantially overlapped | hygroscopic weight gain [4, 9]: about 0.48%
SMILES: C=CC(=O)N1CCN2C(=O)c3cc(F)c(-c4ccc(F)c5sc(N)c(C#N)c45)c4c(Cl)nn(c34)CC[C@H]2C1 [crystal form M]

Color and state ([3]; 60 °C, 30 days): Off-white solid | Crystal form ([3]; 60 °C, 30 days): Did not change | Purity (%) ([3]; 60 °C, 30 days): 98.9% | Color and state ([3]; 75% RH, 7 days): Off-white solid | Crystal form ([3]; 75% RH, 7 days): Did not change | Purity (%) ([3]; 75% RH, 7 days): 99.2% | Color and state ([3]; 75% RH, 14 days): Off-white solid | Crystal form ([3]; 75% RH, 14 days): Did not change | Purity (%) ([3]; 75% RH, 14 days): 99.1% | Color and state ([3]; 75% RH, 30 days): Off-white solid | Crystal form ([3]; 75% RH, 30 days): Did not change | Purity (%) ([3]; 75% RH, 30 days): 99.1% | hygroscopic weight gain [4, 8]: about 3.06% | crystal form re-identified after DVS testing [4]: did not change | hygroscopic weight gain ([4]; extreme conditions (90% RH)): about 3.18% | desorption process of the sample versus its adsorption process [4]: substantially overlapped | hygroscopic weight gain [4, 9]: about 3.00%
SMILES: C=CC(=O)N1CCN2C(=O)c3cc(F)c(-c4ccc(F)c5sc(N)c(C#N)c45)c4c(Cl)nn(c34)CC[C@H]2C1 [crystal form N]
